Data as given in US11566007B2, “Ras inhibitors” (Revolution Medicines, Inc., priority 2019, dated 2023).

Assays:
[1] = molecular target: K-Ras G12C (Homo sapiens (Human), UniProt P01116+P62937, G12C); test: Ras-Raf (BRAF RBD) disruption / FRET / MOA assay, KRAS G12C; format: biochemical; conditions: KRAS G12C; Ras-Raf disruption/FRET/MOA assay; read-out: IC50* KRAS G12C FRET data
Method in brief: (§1)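 A 10-point, 3-fold dilution series topping at 30 μM final was incubated 3 h at 25° C with the Ras/cyclophilin A/BRAF RBD mixture.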

[2] = molecular target: KRAS WT (Homo sapiens (Human), UniProt P01116+P62937); test: Ras-Raf (BRAF RBD) disruption / FRET / MOA assay, KRAS WT; format: biochemical; conditions: read-out: IC50* KRAS WT FRET data
Sequence of KRAS WT (P01116-2 other isoform, or with tags, fused parts or gaps): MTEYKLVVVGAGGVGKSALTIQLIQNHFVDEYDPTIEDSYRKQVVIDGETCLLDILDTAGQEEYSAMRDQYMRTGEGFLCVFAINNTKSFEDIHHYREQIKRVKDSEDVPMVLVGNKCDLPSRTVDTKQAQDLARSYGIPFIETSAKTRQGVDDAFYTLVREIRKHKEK
Sequence of KRAS WT (P62937 whole entry): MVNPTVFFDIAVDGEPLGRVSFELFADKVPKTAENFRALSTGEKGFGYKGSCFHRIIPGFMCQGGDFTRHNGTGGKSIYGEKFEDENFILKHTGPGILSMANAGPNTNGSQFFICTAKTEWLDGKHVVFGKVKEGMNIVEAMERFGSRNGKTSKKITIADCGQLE
Method in brief: as §1

Sequence of K-Ras G12C (P01116-2 other isoform, or with tags, fused parts or gaps G12C): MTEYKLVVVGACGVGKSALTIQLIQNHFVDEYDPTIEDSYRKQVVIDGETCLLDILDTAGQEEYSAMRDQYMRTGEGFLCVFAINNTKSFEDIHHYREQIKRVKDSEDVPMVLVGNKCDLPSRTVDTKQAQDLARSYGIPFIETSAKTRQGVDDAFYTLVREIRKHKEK
Sequence of K-Ras G12C (P62937 whole entry): as the sequence (P62937 whole entry) above

- IC50 [1]: < 0.01 µM
- IC50 [2]: 1 to 10 µM
Compound: CCn1c(-c2cccnc2[C@H](C)OC)c2c3cc(ccc31)N1CCO[C@@H](C[C@H](NC(=O)[C@H](C(C)C)N(C)C(=O)[C@@]3(F)CCC(C(=O)C#CC(C)(C)N4CCC4)C3)C(=O)N3CCC[C@H](N3)C(=O)OCC(C)(C)C2)C1 (some centres unmarked) [Example A726]
